We go through 1 compound from patent US20240108740A1, “THERAPEUTIC COMPOSITIONS INCLUDING SPN10 AND USES THEREOF” (Stealth BioTherapeutics Inc., priority 2022, published 2024).

SMILES strings stand for the structures. Residues, ends and D or L forms follow the SMILES beside them.

One test concerns Sprague Dawley rats. The test can be described thus: Example 37: acute renal injury caused by ischemia-reperfusion. The format is in vivo, rat. As for the experimental part: […] Sprague Dawley rats (250-300 g) will be assigned to one of the following groups: (1) sham surgery (no I/R); (2) I/R+saline vehicle; (3) I/R+peptide conjugates; (4) I/R+aromatic-cationic peptides; (5) I/R+SPN10(s); (6) I/R+SPN10(s) and aromatic-cationic peptides. Peptide conjugates (3 mg/kg in saline); aromatic-cationic peptides (an equivalent molar dose of aromatic-cationic peptide based on the concentration of the aromatic-cationic peptide administered in the peptide conjugate treatment group); SPN10(s) (an equivalent molar dose of SPN10 based on the concentration of SPN10 administered in the peptide conjugate treatment group) or SPN10(s) in combination with aromatic-cationic peptides (e.g., an equivalent molar dose of SPN10 based on the concentration of SPN10 administered in the peptide conjugate treatment group and an equivalent molar dose of aromatic-cationic peptide based on the concentration of aromatic-cationic peptide administered in the peptide conjugate treatment group) will be administered 30 minutes before ischemia and immediately before reperfusion. Control animals will be given saline alone according to the same schedule.
Rats will be anesthetized with a mixture of ketamine (90 mg/kg, i.p.) and xylazine (4 mg/kg, i.p.). […] Renal function will be determined by measuring levels of blood urea nitrogen (BUN) and serum creatinine (BioAssay Systems DIUR-500 and DICT-500).
Renal Morphologic Examination: Kidneys will be fixed in 10% neutral-buffered formalin and embedded in paraffin wax for sectioning. Three-micron sections will be stained with hematoxylin-eosin (H&E) and periodic acid-Schiff (PAS), and analyzed by light microscopy. Lesions will be scored based on 1) mitosis and necrosis of individual cells, 2) necrosis of all cells in adjacent proximal convoluted tubules with survival of surrounding tubules, 3) necrosis confined to the distal third of the proximal convoluted tubule with a band of necrosis extending across the inner cortex, and 4) necrosis affecting all three segments of the proximal convoluted tubule. […]

Another test has as its system N2A cells. The test can be described thus: Example 24: lipid peroxidation (4-HNE Michael adducts). The format is cell-based. Particulars: t-BHP 1 mM, 3 hours. As for the experimental part:
Lipid peroxidation will be evaluated by measuring 4-HNE Michael adducts. 4-HNE is one of the major products of the peroxidation of membrane polyunsaturated fatty acids. N2A cells will be seeded on a glass dish 1 day before t-BHP treatment (1 mM, 3 hours, 37° C., 5% CO2) alone or in the presence of peptide conjugates (10^−8 to 10^−10 M), aromatic-cationic peptides (an equivalent molar dose of aromatic-cationic peptide based on the concentration of the aromatic-cationic peptide administered in the peptide conjugate treatment group); SPN10(s) (an equivalent molar dose of SPN10 based on the concentration of SPN10 administered in the peptide conjugate treatment group); or SPN10(s) in combination with aromatic-cationic peptides (e.g., an equivalent molar dose of SPN10 based on the concentration of SPN10 administered in the peptide conjugate treatment group and an equivalent molar dose of aromatic-cationic peptide based on the concentration of aromatic-cationic peptide administered in the peptide conjugate treatment group). Cells will be washed twice with PBS, fixed 30 minutes with 4% paraformaldehyde in PBS at RT, and washed 3 additional times with PBS. […] Cells will be mounted in Vectashield and imaged using a Zeiss fluorescence microscope using an excitation wavelength of 460±20 nm and a longpass filter of 505 nm for emission.

A further test concerns SN-4741 cells. The test can be described thus: Example 31: MPP^+ toxicity (Hoechst 33342). The format is cell-based. Particulars: 50 μM MPP^+, 48 hours. On the procedure: SN-4741 cells will be treated with buffer; 50 μM MPP^+; 50 μM MPP^+ and peptide conjugates; 50 μM MPP^+ and aromatic-cationic peptides; or 50 μM MPP^+ and SPN10(s); or 50 μM MPP^+ and SPN10(s) with aromatic-cationic peptides for 48 hours. Apoptosis will be measured by fluorescent microscopy with Hoechst 33342.

For test [1], the system named is Ang II-induced hypertensive cardiomyopathy. The test can be described thus: Ang II (4 weeks) induced cardiac NADPH oxidase, p38 MAPK and apoptosis. The format is in vivo. An excerpt:
It is anticipated that SPN10(s) (with or without aromatic-cationic peptides) or peptide conjugates act downstream of NADPH oxidase and will reduce activation of p38 MAPK and apoptosis in response to Ang II. […] Mitochondrial ROS, either directly, or indirectly by activating apoptosis signal regulating kinase, may induce apoptosis. It is anticipated that Ang II will induce cardiac apoptosis, which will be shown through an increase in cleaved caspase-3.

As to `N=C(N)NCCC[C@H](NC(=O)[C@@H](N)Cc1c[nH]c2ccccc12)C(=O)N[C@@H](Cc1c[nH]c2ccccc12)C(=O)N[C@@H](CCCCN)C(N)=O` [SPN10, H-L-Trp-L-Arg-L-Trp-L-Lys-NH2] (H-WRWK-NH2), the “BUN and serum creatinine values” in the test on Sprague Dawley rats (30 minutes before ischemia and immediately before reperfusion, 24 hours of reperfusion) was “improve BUN and serum creatinine values”. In the test on Sprague Dawley rats (rat, in vivo), the “tubular cell apoptosis after ischemia and reperfusion” value is recorded as “prevent tubular cell apoptosis”; the “tubular cell injury after ischemia and reperfusion” value is “prevent tubular cell injury”. The “lipid peroxidation in cells treated with t-BHP” value in the test with N2A cells was “inhibit lipid peroxidation”. Moreover, the “number of apoptotic cells after MPP^+” value with SN-4741 cells is “reduce the number of apoptotic cells”. The “Ang II-increased cardiac NADPH oxidase activity” value in test [1] (4 weeks of Ang II) is listed as “not be changed”. In test [1] (Ang II), the “activation of caspase-3 caused by Ang II (cleaved caspase-3)” value is listed as “completely prevent”. Besides, the “phosphorylation of p38 MAPK” value in test [1] (Ang II for 4 weeks) was “significantly and nearly fully attenuated”.
